Test results as given in ChEMBL document CHEMBL4311981, “Synthesis, anticancer activity, and molecular modeling of 1,4-naphthoquinones that inhibit MKK7 and Cdc25” (Eur J Med Chem, 2019).
Active and inactive are the calls of the source. The calls are words filed in the database; no cut-off is given here.

What was measured:
[1] = molecular target: T1, M-phase inducer phosphatase 2 (Homo sapiens, UniProt P30305)
T1 sequence (P30305 whole entry): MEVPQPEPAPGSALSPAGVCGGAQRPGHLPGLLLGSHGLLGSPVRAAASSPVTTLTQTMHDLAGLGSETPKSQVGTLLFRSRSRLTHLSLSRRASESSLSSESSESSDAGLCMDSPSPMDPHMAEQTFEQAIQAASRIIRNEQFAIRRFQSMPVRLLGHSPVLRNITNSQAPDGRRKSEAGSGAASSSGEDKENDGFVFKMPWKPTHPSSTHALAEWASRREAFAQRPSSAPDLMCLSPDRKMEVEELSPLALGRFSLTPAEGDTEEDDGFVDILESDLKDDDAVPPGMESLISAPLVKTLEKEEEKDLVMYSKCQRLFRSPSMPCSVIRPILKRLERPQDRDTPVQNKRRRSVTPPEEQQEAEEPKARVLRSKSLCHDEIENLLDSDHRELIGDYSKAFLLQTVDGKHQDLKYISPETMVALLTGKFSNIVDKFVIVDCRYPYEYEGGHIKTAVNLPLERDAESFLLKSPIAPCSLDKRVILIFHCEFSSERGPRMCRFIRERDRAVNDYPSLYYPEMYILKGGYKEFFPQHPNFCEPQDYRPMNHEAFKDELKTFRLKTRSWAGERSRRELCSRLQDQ
Description: Inhibition of recombinant Cdc25B (unknown origin) using OMFP as substrate measured every 30 sec for 10 mins by fluorometric assay

U-937 = assay: Cytotoxicity against human U937 cells assessed as reduction in cell viability incubated for 24 hrs by CellTiter-Glo luminescent cell viability assay; format: functional, cell-based; settings: U-937, 24 h
[2] = molecular target: T2, Dual specificity mitogen-activated protein kinase kinase 7 (Homo sapiens, UniProt O14733); assay: biochemical
T2 sequence (O14733 whole entry): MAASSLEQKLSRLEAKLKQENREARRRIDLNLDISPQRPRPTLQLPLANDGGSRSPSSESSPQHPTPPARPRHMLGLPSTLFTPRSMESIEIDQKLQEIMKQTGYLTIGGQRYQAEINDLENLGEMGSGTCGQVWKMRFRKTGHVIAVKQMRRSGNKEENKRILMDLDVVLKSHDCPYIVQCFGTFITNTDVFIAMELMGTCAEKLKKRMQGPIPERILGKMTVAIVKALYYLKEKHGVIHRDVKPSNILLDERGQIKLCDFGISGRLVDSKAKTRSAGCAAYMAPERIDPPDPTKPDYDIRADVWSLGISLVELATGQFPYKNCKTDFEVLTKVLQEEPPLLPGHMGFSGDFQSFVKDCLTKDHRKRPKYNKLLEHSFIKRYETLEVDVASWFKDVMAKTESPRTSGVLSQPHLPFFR
Description: Binding affinity to MKK7 (unknown origin) expressed in HEK293 cells assessed as dissociation constant by kinomescan method

[3] = molecular target: T3, Neutrophil elastase (Homo sapiens) (UniProt P08246); assay: Inhibition of recombinant HNE (unknown origin) at <50 uM using N-methylsuccinyl-Ala-Ala-Pro-Val-7-amino-4-methylcoumarin, as a substrate measured every 30 sec for 10 mins by fluorometric assay
T3 sequence (whole entry): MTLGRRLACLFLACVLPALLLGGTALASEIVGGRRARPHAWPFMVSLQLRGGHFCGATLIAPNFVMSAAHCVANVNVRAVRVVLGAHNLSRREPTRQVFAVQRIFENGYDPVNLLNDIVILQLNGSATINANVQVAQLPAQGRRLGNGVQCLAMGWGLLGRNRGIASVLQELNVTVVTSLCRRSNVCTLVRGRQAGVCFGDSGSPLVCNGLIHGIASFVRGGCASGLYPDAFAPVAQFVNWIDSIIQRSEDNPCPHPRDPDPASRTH

Jurkat = assay: cells; settings: Homo sapiens, 24 h
Description: Cytotoxicity against human Jurkat cells assessed as reduction in cell viability incubated for 24 hrs by CellTiter-Glo luminescent cell viability assay

MONO-MAC-6 = assay: Cytotoxicity against human MONO-MAC-6 cells assessed as reduction in cell viability incubated for 24 hrs by CellTiter-Glo luminescent cell viability assay; format: functional, cell-based; settings: MONO-MAC-6, 24 h
SW982 = assay: Cytotoxicity against human SW982 cells assessed as reduction in cell viability incubated for 24 hrs by CellTiter-Glo luminescent cell viability assay; format: functional, cell-based; settings: SW982, 24 h
A549 = assay: Cytotoxicity against human A549 cells assessed as reduction in cell viability incubated for 24 hrs by CellTiter-Glo luminescent cell viability assay; format: functional, cell-based; settings: for IC50: A549, 24 h
HL-60 = assay: Cytotoxicity against human HL60 cells assessed as reduction in cell viability incubated for 24 hrs by CellTiter-Glo luminescent cell viability assay; format: functional, cell-based; settings: for IC50: HL-60, 24 h
THP-1 = assay: Cytotoxicity against human THP1 cells assessed as reduction in cell viability incubated for 24 hrs by CellTiter-Glo luminescent cell viability assay; format: functional, cell-based; settings: THP-1, 24 h
LS174T = assay: Cytotoxicity against human LS174T cells assessed as reduction in cell viability incubated for 24 hrs by CellTiter-Glo luminescent cell viability assay; format: functional, cell-based
[4] = molecular target: T4, M-phase inducer phosphatase 1 (Homo sapiens, UniProt P30304)
T4 sequence (P30304 whole entry): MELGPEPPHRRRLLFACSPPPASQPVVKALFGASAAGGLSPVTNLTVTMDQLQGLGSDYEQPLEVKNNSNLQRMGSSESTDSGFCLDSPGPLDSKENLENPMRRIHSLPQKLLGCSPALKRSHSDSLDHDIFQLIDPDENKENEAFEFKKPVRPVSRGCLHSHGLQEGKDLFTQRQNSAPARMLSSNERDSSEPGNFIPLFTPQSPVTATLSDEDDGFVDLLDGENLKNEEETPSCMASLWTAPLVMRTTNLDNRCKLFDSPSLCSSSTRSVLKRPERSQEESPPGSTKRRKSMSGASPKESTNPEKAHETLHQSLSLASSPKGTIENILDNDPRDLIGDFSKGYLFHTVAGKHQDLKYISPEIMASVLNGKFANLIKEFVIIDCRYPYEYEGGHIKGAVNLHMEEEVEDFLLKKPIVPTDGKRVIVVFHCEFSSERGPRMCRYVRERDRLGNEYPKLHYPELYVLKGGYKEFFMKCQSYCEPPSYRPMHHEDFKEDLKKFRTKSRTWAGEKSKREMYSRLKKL
Description: Inhibition of recombinant Cdc25A (unknown origin) using OMFP as substrate measured every 30 sec for 10 mins by fluorometric assay

MCF7 = assay: Cytotoxicity against human MCF7 cells assessed as reduction in cell viability incubated for 24 hrs by CellTiter-Glo luminescent cell viability assay; format: functional, cell-based; settings: MCF7, 24 h
PBMC = assay: Cytotoxicity against human PBMC cells assessed as reduction in cell viability incubated for 24 hrs by CellTiter-Glo luminescent cell viability assay; format: cell-based
[5] = molecular target: T5, Dual specificity mitogen-activated protein kinase kinase 7 (Homo sapiens) (UniProt O14733); assay: Binding affinity to MKK7 (unknown origin) expressed in HEK293 cells assessed as dissociation constant at <30 uM by kinomescan method; format: cell-based
T5 sequence (whole entry): T2 sequence (O14733 whole entry)

Row | SMILES | IC50 [1] [µM] | IC50 (U-937) [µM] | Kd [2] [µM] | inhibition [3] | IC50 (Jurkat) [µM] | IC50 (MONO-MAC-6) [µM] | IC50 (SW982) [µM] | IC50 (A549) [µM] | IC50 (HL-60) [µM] | IC50 (THP-1) [µM] | IC50 (LS174T) [µM] | IC50 [4] [µM] | IC50 (MCF7) [µM] | IC50 (PBMC; read-out: IC50) [µM] | Activity [5] | inhibition [5] | IC50 (PBMC) [µM] | Activity (HL-60) | Activity (A549)
1 | COCCSC1=C(C)C(=O)c2ccccc2C1=O | 6.5 | 5.3 | 14 | inactive | 3.2 | 1.7 | 9.7 | 18.6 | 1.6 | 2.2 | 15.7 | 5.7 | 14.9 |  |  |  |  |  | 
2 | CC1=C(SC(C)C)C(=O)c2ccccc2C1=O | 9.1 | 8.9 | 13 | inactive | 4.7 | 2 | 12.8 | 24 | 4.3 | 3.6 | 20.8 | 6.3 | 16.8 |  |  |  |  |  | 
3 | CC1=CC(=O)c2c(O)cccc2C1=O |  |  |  | inactive |  |  |  |  |  |  |  |  |  |  |  |  |  |  | 
4 | O=C(O)CCSC1=CC(=O)c2ccccc2C1=O | 1.6 | 18.6 | 0.23 | inactive | 9.1 | 22 | 10.5 |  | 15 | 17.6 |  | 1.5 |  | 23.4 |  |  |  |  | 
5 | Nn1c(CCC(=O)O)nc2ccccc2c1=O |  |  |  |  |  |  |  |  |  |  |  |  |  |  | inactive |  |  |  | 
6 | Cn1c(SCCC(=O)O)nc2ccccc2c1=O |  |  |  |  |  |  |  |  |  |  |  |  |  |  | inactive |  |  |  | 
7 | COC(=O)c1ccc(NC2=C(Cl)C(=O)c3ccccc3C2=O)cc1 | 10.9 |  |  | inactive |  |  |  |  |  |  |  | 20.3 |  |  |  | inactive |  |  | 
8 | O=C(O)c1ccc(NC2=C(Cl)C(=O)c3ccccc3C2=O)cc1 | 4.9 | 3.9 |  | inactive | 5.5 | 6 | 4.6 | 17.6 | 8.9 | 5.6 | 9.9 | 2.4 | 14.5 | 13.1 |  | inactive |  |  | 
9 | CSC1=C(SC)C(=O)c2ccccc2C1=O |  |  |  | inactive | 1.4 |  | 7.6 | 12.4 | 0.7 | 1.7 | 15.1 |  | 7.4 |  |  |  |  |  | 
10 | O=C(O)CSc1nc(O)c2ccccc2n1 |  |  |  |  |  |  |  |  |  |  |  |  |  |  | inactive |  |  |  | 
11 | CCN(CC)CCNC(=O)c1c(C)[nH]c(/C=C2\C(=O)Nc3ccc(F)cc32)c1C [SUNITINIB] |  | 13.7 |  |  |  |  | 41.2 |  |  |  |  |  |  |  |  |  | 46.3 |  | 
12 | CC(C)=CC[C@@H](O)C1=CC(=O)c2c(O)ccc(O)c2C1=O [SHIKONIN] |  | 1.2 |  | inactive | 0.97 | 2.6 | 2.8 | 7.3 |  | 0.82 | 8.9 | 0.22 | 2.7 | 5 | inactive |  |  | Dose-dependent effect | 
13 | O=C(O)CSC1=CC(=O)c2ccccc2C1=O | 1 | 15.9 | 1.4 | inactive | 0.94 | 23.2 | 11.1 | 22.9 | 20.4 |  |  | 0.05 |  |  |  |  |  |  | inactive
